Legend:
[1] = test system: ConA-stimulated lymphocytes of diabetic NOD mouse; assay: ConA-stimulated autoimmune lymphocyte proliferation in coculture with differentiated embryonic-like stem cells; type: cell-based; conditions: MGTA 10 μM, p<0.01
Protocol: The specific carboxypeptidase inhibitor, carboxypeptidase inhibitor 2-mercaptomethyl-3-guanidinoethylthiopropanoic acid (MGTA, 10 μM) was applied to block carboxypeptidase. First, embryonic-like stem cells were differentiated by treatment with 10 nM Exendin4+10 ng/ml GM-CSF+25 mM glucose in 7% FBS-DMEM culture medium for 3-5 days. Second, autoimmune lymphocytes were isolated form the diabetic NOD mouse and then cocultured with these embryonic-like stem cells in the presence MGTA. The mouse lymphocyte mitogen concanavalin A (ConA) was used to stimulate the proliferation of lymphocytes.

[2] = test system: DNA methyltransferase (DNMT) activity of lymphocytes; assay: DNA methyltransferase activity of lymphocytes regulated by CB-SC-derived NO; type: cell-based; conditions: presence of iNOS inhibitor
[3] = test system: PHA- or IL-2-stimulated allogeneic lymphocytes; assay: Mitogen-stimulated lymphocyte proliferation in coculture with CB-SC (cell count); type: cell-based, human; conditions: 200 μM/day L-NNA for 3 days, p<0.05
Protocol: (§1) For PHA stimulation, lymphocyte suspensions (1×10^6 cells/ml) with or without PHA (10 μg/ml, Sigma) were seeded onto CB-SC cell cultures in regular culture medium. PHA-stimulated lymphocytes without CB-SC served as positive control; lymphocytes cultured only in regular medium served as negative control. Lymphocytes cocultured with CB-SC without PHA stimulation served as an additional negative control. For IL-2 stimulation, IL-2 (500 U/ml, eBioscience) was used. After 5-6 days, the suspended lymphocytes were collected for cell count and/or flow analysis.
Unfixed CB-SC from same cord blood units served as controls. Additionally, we employed transwell culture system with 0.4 μm size (Sigma) to plant lymphocytes.
In experiments where N^ω-nitro-L-arginine (L-NNA, Sigma) was used to inhibit NO synthase, the drug (200 μM L-NNA) was added 1 h before PHA stimulation and then administrated 200 μM/day for additional two days. [Ziche, M., L. Morbidelli, E. Masini, S. Amerini, H. J. Granger, C. A. Maggi, P. Geppetti, and F. Ledda. 1994. Nitric oxide mediates angiogenesis in vivo and endothelial cell growth and migration in vitro promoted by substance P. J Clin Invest. 94:2036-2044].

[4] = test system: intracytoplasmic IL-10 in allogeneic lymphocytes; assay: Flow analysis of intracellular IL-10 production; type: cell-based, human; conditions: PHA-stimulated lymphocytes without CB-SC
Protocol: Allogeneic lymphocytes were cocultured with CB-SC at ratio 1:10 of CB-SC: lymphocytes, in the presence or absence of mitogen PHA. After coculture for 5-6 days, cells were permeabalized and evaluated for intracytoplasmic IL-10 level by flow cytometry. Isotype-matched mouse IgG1κ antibody served as negative control. Data represent one of at least three experiments with the similar results;
as §1
Flow analysis was preformed as previously described [Zhao, Y., H. Wang, and T. Mazzone. 2006. Identification of stem cells from human umbilical cord blood with embryonic and hematopoietic characteristics. Exp Cell Res. 2006, 312: 2454-2464. DOI: 10.1016/j.yexcr.2006.04.008. April 26; (Epub ahead of print)]. […] After staining, cells were analyzed using a CyAn ADP (DakoCytomation).

[5] = test system: human peripheral blood lymphocyte subsets; assay: Coculture of CB-SC with lymphocytes, flow analysis of T cell subsets; type: cell-based; conditions: PHA stimulation without CB-SC, p<0.05
Text: CB-SC adhere very tightly to the culture dishes and display large rounded morphology, it is easy to distinguish between CB-SC and lymphocytes. CB-SC growing at 80% confluence were used for coculture with allogeneic lymphocytes. Allogeneic lymphocytes were collected from buffy coats of healthy donors (Life-Source Blood Services, Glenview, Ill.) after Ficoll-Hypaque separation followed by removing all attached cells and then cocultured with CB-SC at the ratio (1:10) [Zhao, Y., H. Wang, and T. Mazzone. 2006. Identification of stem cells from human umbilical cord blood with embryonic and hematopoietic characteristics. Exp Cell Res. 2006, 312: 2454-2464. DOI: 10.1016/j.yexcr.2006.04.008. April 26; (Epub ahead of print)] of CB-SC.
as §1, with “After 5-6 days, the suspended lymphocytes were collected for cell count and/or flow analysis.” left out
Flow analysis was preformed as previously described [Zhao, Y., H. Wang, and T. Mazzone. […] After staining, cells were analyzed using a CyAn ADP (DakoCytomation). […]

For “2-mercaptomethyl-3-guanidinoethylthiopropanoic acid [MGTA]”, the “reversal of stem-cell inhibition of ConA-stimulated lymphocyte proliferation” value [1] was “completely revert their inhibition”.

CC(=N)NCc1cccc(CN)c1 [1400 W] was tested, and the “blocking of regulation of lymphocyte DNMT activity by CB-SC-derived NO” value [2] was “significantly blocked”.

For NC(=NCCC[C@H](N)C(=O)O)N[N+](=O)[O-] [L-NNA, N-omega-nitro-L-arginine], the “lymphocyte cell number in presence vs absence of L-NNA” value [3] was “about 4 fold”.

With phytohaemagglutinin [PHA] the IL-10-positive cells [4] was 80% and the “increase of CD8^+ and decrease of CD4^+ T cell percentage vs lymphocytes alone” value [5] was “more than 2 fold”.

Reference: patent US9388382B2, “Isolation of CD14 negative, CD45 positive and CD117 positive embryonic-like stem cells free of monocytes from human umbilical cord blood mononuclear cells” (THE BOARD OF TRUSTEES OF THE UNIVERSITY OF ILLINOIS, priority 2005, dated 2016)
